Assay results reported in patent publication US20220227737A1, “NOVEL OXALYL PIPERAZINES ACTIVE AGAINST THE HEPATITIS B VIRUS (HBV)” (AiCuris GmbH & Co. KG, priority 2019, published 2022).

Target: T1, C-terminal truncated core protein (HBV core dimer, BODIPY-FL labelled) (UniProt P03146)
T1 construct: fused on or other part: One added cysteine at position 150, labelled with BODIPY-FL maleimide; The C-terminal arginine-rich domain is absent
Assay: Biochemical capsid assembly assay (fluorescence quenching)
Description: Biochemical Capsid Assembly Assay
The screening for assembly effector activity was done based on a fluorescence quenching assay published by Zlotnick et al. (2007). The C-terminal truncated core protein containing 149 amino acids of the N-terminal assembly domain fused to a unique cysteine residue at position 150 and was expressed in E. coli using the pET expression system (Merck Chemicals, Darmstadt). Purification of core dimer protein was performed using a sequence of size exclusion chromatography steps. In brief, the cell pellet from 1 L BL21 (DE3) Rosetta2 culture expressing the coding sequence of core protein cloned NdeI/XhoI into expression plasmid pET21b was treated for 1 h on ice with a native lysis buffer (Qproteome Bacterial Protein Prep Kit; Qiagen, Hilden). After a centrifugation step the supernatant was precipitated during 2 h stirring on ice with 0.23 g/ml of solid ammonium sulfate. Following further centrifugation the resulting pellet was resolved in buffer A (100 mM Tris, pH 7.5; 100 mM NaCl; 2 mM DTT) and was subsequently loaded onto a buffer A equilibrated CaptoCore 700 column (GE HealthCare, Frankfurt). The column flow through containing the assembled HBV capsid was dialyzed against buffer N (50 mM NaHCO3 pH 9.6; 5 mM DTT) before urea was added to a final concentration of 3M to dissociate the capsid into core dimers for 1.5 h on ice. The protein solution was then loaded onto a 1 L Sephacryl 5300 column. After elution with buffer N core dimer containing fractions were identified by SDS-PAGE and subsequently pooled and dialyzed against 50 mM HEPES pH 7.5; 5 mM DTT. To improve the assembly capacity of the purified core dimers a second round of assembly and disassembly starting with the addition of 5 M NaCl and including the size exclusion chromatography steps described above was performed. From the last chromatography step core dimer containing fractions were pooled and stored in aliquots at concentrations between 1.5 to 2.0 mg/ml at −80° C.
Immediately before labelling the core protein was reduced by adding freshly prepared DTT in a final concentration of 20 mM. After 40 min incubation on ice storage buffer and DTT was removed using a Sephadex G-25 column (GE HealthCare, Frankfurt) and 50 mM HEPES, pH 7.5. For labelling 1.6 mg/ml core protein was incubated at 4° C. and darkness overnight with BODIPY-FL maleimide (Invitrogen, Karlsruhe) in a final concentration of 1 mM. After labelling the free dye was removed by an additional desalting step using a Sephadex G-25 column. Labelled core dimers were stored in aliquots at 4° C. In the dimeric state the fluorescence signal of the labelled core protein is high and is quenched during the assembly of the core dimers to high molecular capsid structures. The screening assay was performed in black 384 well microtiter plates in a total assay volume of 10 μl using 50 mM HEPES pH 7.5 and 1.0 to 2.0 μM labelled core protein. Each screening compound was added in 8 different concentrations using a 0.5 log-unit serial dilution starting at a final concentration of 100 μM, 31.6 μM or 10 μM, In any case the DMSO concentration over the entire microtiter plate was 0.5%. The assembly reaction was started by the injection of NaCl to a final concentration of […] which induces the assembly process to approximately 25% of the maximal quenched signal. […] after starting the reaction the fluorescence signal was measured using a Clariostar plate reader (BMG Labtech, Ortenberg) with an excitation of 477 nm and an emission of 525 nm. As 100% and 0% assembly control HEPES buffer containing 2.5 M and 0 M NaCl was used. Experiments were performed thrice in triplicates. EC50 values were calculated by non-linear regression analysis using the Graph Pad Prism 6 software (GraphPad Software, La Jolla, USA).

T1 sequence (P03146 whole entry, the tested form may be a part): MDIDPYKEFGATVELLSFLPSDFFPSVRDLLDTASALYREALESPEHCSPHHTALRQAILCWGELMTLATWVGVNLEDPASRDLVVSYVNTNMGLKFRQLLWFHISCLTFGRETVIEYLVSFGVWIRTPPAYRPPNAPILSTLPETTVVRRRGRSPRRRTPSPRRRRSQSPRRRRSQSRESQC

Row | SMILES | IC50 [µM]
1 | O=C1CCC(CNC(=O)C(=O)N2CCN(C(=O)c3cc4ccccc4[nH]3)CC2)N1 (stereo not shown) [Example 14, 2-[4-(1H-indole-2-carbonyl)piperazin-1-yl]-2-oxo-N-[(5-oxopyrrolidin-2-yl)methyl]acetamide] | < 100
2 | C#CCNC(=O)C(=O)N1CCN(C(=O)c2cc3ccccc3[nH]2)CC1 [Example 15, 2-(4-(1H-indole-2-carbonyl)piperazin-1-yl)-2-oxo-N-(prop-2-yn-1-yl)acetamide] | < 5
3 | O=C(N[C@H]1CC[C@@H](O)CC1)C(=O)N1CCN(C(=O)c2cc3ccccc3[nH]2)CC1 [Example 16, 2-(4-(1H-indole-2-carbonyl)piperazin-1-yl)-N-((1s,4s)-4-hydroxycyclohexyl)-2-oxoacetamide] | 5 to 10
4 | O=C(N[C@H]1C[C@H](O)C1)C(=O)N1CCN(C(=O)c2cc3ccccc3[nH]2)CC1 [Example 17, 2-(4-(1H-indole-2-carbonyl)piperazin-1-yl)-N-((1 r,3 r)-3-hydroxycyclobutyl)-2-oxoacetamide] | 5 to 10
5 | O=C(NCC1(O)CC1)C(=O)N1CCN(C(=O)c2cc3ccccc3[nH]2)CC1 [Example 18, 2-(4-(1H-indole-2-carbonyl)piperazin-1-yl)-N-((1-hydroxycyclopropyl)methyl)-2-oxoacetamide] | < 100
6 | O=C1CC2(CC(CNC(=O)C(=O)N3CCN(C(=O)c4cc5ccccc5[nH]4)CC3)C2)N1 (stereo not shown) [Example 19, 2-(4-(1H-indole-2-carbonyl)piperazin-1-yl)-2-oxo-N-((2-oxo-1-azaspiro[3.3]heptan-6-yl)methyl)acetamide] | < 100
7 | NC(=O)C1(CNC(=O)C(=O)N2CCN(C(=O)c3cc4ccccc4[nH]3)CC2)CCC1 [Example 20, 1-((2-(4-(1H-indole-2-carbonyl)piperazin-1-yl)-2-oxoacetamido)methyl)cyclobutane-1-carboxamide] | < 100
8 | NC(=O)C1(CNC(=O)C(=O)N2CCN(C(=O)c3cc4ccccc4[nH]3)CC2)CC(F)(F)C1 [Example 21, 1-((2-(4-(1H-indole-2-carbonyl)piperazin-1-yl)-2-oxoacetamido)methyl)-3,3-difluorocyclobutane-1-carboxamide] | 5 to 10
9 | CNC(=O)C1(CNC(=O)C(=O)N2CCN(C(=O)c3cc4ccccc4[nH]3)CC2)CCC1 [Example 22, 1-((2-(4-(1H-indole-2-carbonyl)piperazin-1-yl)-2-oxoacetamido)methyl)-N-methylcyclobutane-1-carboxamide] | < 100
10 | CCCCNC(=O)C(=O)N1CCN(C(=O)c2cc3cc(F)ccc3[nH]2)CC1 [Example 27, N-butyl-2-(4-(5-fluoro-1H-indole-2-carbonyl)piperazin-1-yl)-2-oxoacetamide] | < 5
11 | O=C(N[C@H]1CC[C@H](O)CC1)C(=O)N1CCN(C(=O)c2cc3ccccc3[nH]2)CC1 [Example 33, 2-(4-(1H-indole-2-carbonyl)piperazin-1-yl)-N-((1r,4r)-4-hydroxycyclohexyl)-2-oxoacetamide] | < 100
12 | C[C@H](O)CNC(=O)C(=O)N1CCN(C(=O)c2cc3ccccc3[nH]2)CC1 [Example 36, (S)-2-(4-(1H-indole-2-carbonyl)piperazin-1-yl)-N-(2-hydroxypropyl)-2-oxoacetamide] | < 5
13 | C[C@H](NC(=O)C(=O)N1CCN(C(=O)c2cc3ccccc3[nH]2)CC1)C(F)(F)F [Example 37, 2-[4-(1H-indole-2-carbonyl)piperazin-1-yl]-2-oxo-N-[(2S)-1,1,1-trifluoropropan-2-yl]acetamide] | < 5
14 | C[C@@H](NC(=O)C(=O)N1CCN(C(=O)c2cc3ccccc3[nH]2)CC1)C(F)(F)F [Example 38, (R)-2-(4-(1H-indole-2-carbonyl)piperazin-1-yl)-2-oxo-N-(1,1,1-trifluoropropan-2-yl)acetamide] | < 5
15 | CC1(NC(=O)C(=O)N2CCN(C(=O)c3cc4ccccc4[nH]3)CC2)CCOCC1 [Example 39, 2-(4-(1H-indole-2-carbonyl)piperazin-1-yl)-N-(4-methyltetrahydro-2H-pyran-4-yl)-2-oxoacetamide] | < 5
16 | O=C(NC1CCOCC1)C(=O)N1CCN(C(=O)c2cc3ccccc3[nH]2)CC1 [Example 40, 2-(4-(1H-indole-2-carbonyl)piperazin-1-yl)-2-oxo-N-(tetrahydro-2H-pyran-4-yl)acetamide] | 5 to 10
17 | COCC1(NC(=O)C(=O)N2CCN(C(=O)c3cc4ccccc4[nH]3)CC2)CCC1 [Example 41, 2-(4-(1H-indole-2-carbonyl)piperazin-1-yl)-N-(1-(methoxymethyl)cyclobutyl)-2-oxoacetamide] | < 5
18 | CC(C)(C)NC(=O)C(=O)N1CCN(C(=O)c2cc3cc(F)c(F)cc3[nH]2)CC1 [Example 42, N-tert-butyl-2-[4-(5,6-difluoro-1H-indole-2-carbonyl)piperazin-1-yl]-2-oxoacetamide] | 5 to 10
19 | CC(C)(C)NC(=O)C(=O)N1CCN(C(=O)c2cc3c(F)cc(F)cc3[nH]2)CC1 [Example 43, N-(tert-butyl)-2-(4-(4,6-difluoro-1H-indole-2-carbonyl)piperazin-1-yl)-2-oxoacetamide] | < 5
20 | Cc1cccc2[nH]c(C(=O)N3CCN(C(=O)C(=O)NC(C)(C)C)CC3)cc12 [Example 44, N-(tert-butyl)-2-(4-(4-methyl-1H-indole-2-carbonyl)piperazin-1-yl)-2-oxoacetamide] | < 5
21 | CC(C)(C)NC(=O)C(=O)N1CCN(C(=O)c2cc3cc(F)c(Cl)cc3[nH]2)CC1 [Example 45, N-(tert-butyl)-2-(4-(6-chloro-5-fluoro-1H-indole-2-carbonyl)piperazin-1-yl)-2-oxoacetamide] | 5 to 10
22 | Cc1c(F)ccc2[nH]c(C(=O)N3CCN(C(=O)C(=O)NC(C)(C)C)CC3)cc12 [Example 46, N-(tert-butyl)-2-(4-(5-fluoro-4-methyl-1H-indole-2-carbonyl)piperazin-1-yl)-2-oxoacetamide] | 5 to 10
23 | C[C@@H]1CN(C(=O)C(=O)NC(C)(C)C)[C@@H](C)CN1C(=O)c1cc2ccccc2[nH]1 [Example 48, N-tert-butyl-2-[(2S,5R)-4-(1H-indole-2-carbonyl)-2,5-dimethylpiperazin-1-yl]-2-oxoacetamide] | < 5
24 | C[C@H]1CN(C(=O)C(=O)NC(C)(C)C)CCN1C(=O)c1cc2ccccc2[nH]1 [Example 49, (S)-2-(4-(1H-indole-2-carbonyl)-3-methylpiperazin-1-yl)-N-(tert-butyl)-2-oxoacetamide] | < 100
25 | C[C@@H]1CN(C(=O)C(=O)NC(C)(C)C)CCN1C(=O)c1cc2ccccc2[nH]1 [Example 50, (R)-2-(4-(1H-indole-2-carbonyl)-3-methylpiperazin-1-yl)-N-(tert-butyl)-2-oxoacetamide] | < 5
26 | CC(C)(C)NC(=O)C(=O)N1CCCN(C(=O)c2cc3ccccc3[nH]2)CC1 [Example 51, 2-(4-(1H-indole-2-carbonyl)-1,4-diazepan-1-yl)-N-(tert-butyl)-2-oxoacetamide] | < 100
27 | CC1(NC(=O)C(=O)N2CCN(C(=O)c3cc4ccccc4[nH]3)CC2)CCCCCC1 [Example 66, 2-[4-(1H-indole-2-carbonyl)piperazin-1-yl]-N-(1-methylcycloheptyl)-2-oxoacetamide] | 5 to 10
28 | CCC(C)(C)NC(=O)C(=O)N1CCN(C(=O)c2cc3ccccc3[nH]2)CC1 [Example 67, 2-[4-(1H-indole-2-carbonyl)piperazin-1-yl]-N-(2-methylbutan-2-yl)-2-oxoacetamide] | < 5
